Source: patent US20230210846A1, “TREATMENT FOR AMYLOIDOSIS” (Zeno Management,Inc., priority 2020, published 2023)

Experiments:
KMS-12-BM cells = assay: Tumor growth study in KMS-12-BM mouse model; assay type: in vivo; conditions: for tumor growth inhibition (TGI): KMS-12-BM model
Description: Tumor volumes were evaluated twice per week to calculate tumor volume over time, and mice were weighed twice per week as a surrogate for signs of toxicity. […] Td and Cd are the mean tumor volumes of the treated and control animals, and T0 and C0 are the mean tumor volumes of the treated and control animals at the start of the experiment.
(§1) Tumor volumes were evaluated twice per week to calculate tumor volume over time, and mice were weighed twice per week as a surrogate for signs of toxicity. Tumor growth inhibition (TGI) was calculated using the following equation TGI=(1−(Td−T0)/(Cd−C0))×100%. Td and Cd are the mean tumor volumes of the treated and control animals, and T0 and C0 are the mean tumor volumes of the treated and control animals at the start of the experiment.
as §1

OPM-2 cells = assay: Tumor growth study in OPM-2 mouse model; assay type: in vivo; conditions: OPM-2 subcutaneous model, 100 mg/kg oral gavage once a day, after 10 days
Description: It is understood that compound activity in MM models is predictive of activity in amyloidosis (e.g. AL amyloidosis) models and/or patients.
Mice were inoculated with OPM-2 cells subcutaneously on the right flank with the single cell suspension of 95% viable tumor cells (1×10^7) in 200 μL RPMI-1640 Matrigel mixture (1:1 ratio) without serum for the tumor development. The treatment was started when the mean tumor size reached approximately 200 mm^3, with individual tumor size ranging from 180-220 mm^3. Animals were randomly distributed into treatment groups of 10 animals each and dosed with either vehicle (i.e. “Vehicle A”) or a compound of Formula (A) having the structure
(“Compound (A)”) at 100 mg/kg administered by oral gavage once a day. Tumor volumes were evaluated twice per week to calculate tumor volume over time, and mice were weighed twice per week as a surrogate for signs of toxicity. Tumor growth inhibition (TGI) efficiency was calculated using the following equation TGI=(1−(Td−T0)/(Cd−C0))×100%. Td and Cd are the mean tumor volumes of the treated and control animals, and T0 and C0 are the mean tumor volumes of the treated and control animals at the start of the experiment.

CC1(C)CCC(CN2CCN(c3ccc(C(=O)NS(=O)(=O)c4ccc(NC[C@H]5CC[C@](C)(O)CC5)c([N+](=O)[O-])c4)c(Oc4cnc5[nH]ccc5c4)c3)CC2)=C(C23CC(C(F)F)(C2)C3)C1 [Compound (A)]
tumor growth inhibition (TGI) (KMS-12-BM cells; single agent 50 mg/kg p.o. qd x21, day 14): 48.7%
TGI efficacy (tumor growth inhibition) (KMS-12-BM cells; KMS-12-BM subcutaneous model, single agent 100 mg/kg p.o. qd, day 14): 62.8%
TGI efficacy (tumor growth inhibition) (OPM-2 cells): 46%

C[C@@H]1C[C@H]2[C@@H]3CCC4=CC(=O)C=C[C@]4(C)[C@@]3(F)[C@@H](O)C[C@]2(C)[C@@]1(O)C(=O)CO [dexamethasone, reference compound]
tumor growth inhibition (TGI) (KMS-12-BM cells; single agent 1 mg/kg IP 5 days on 2 days off, day 14): 22.5%

CC(C)C[C@H](NC(=O)[C@H](Cc1ccccc1)NC(=O)c1cnccn1)B(O)O [bortezomib, reference compound]
tumor growth inhibition (TGI) (KMS-12-BM cells; single agent 0.5 mg/kg IP BIW, day 14): 46.5%
